In patent US20250100996A1, “HETEROCYCLOALKYL AND HETEROARYL COMPOUNDS AND PHARMACEUTICAL COMPOSITIONS THAT MODULATE IKZF2” (Plexium, Inc., priority 2021, published 2025):

What was measured:
GSPT1 = biological target: T1, GSPT1 (Homo sapiens, UniProt P15170); assay: GSPT1 reporter degradation assay (HEK293 hGSPT1 HiBiT-tagged cells); type: cell-based; details: 24 hour incubation
T1 construct: HiBiT-tagged cells were generated using CRISPR-Cas12a technology; endogenous in cells; host or cells: HEK293 (endogenous GSPT1 locus edited with HiBiT knock-in)
T1 sequence (Q96SW2 whole entry partner): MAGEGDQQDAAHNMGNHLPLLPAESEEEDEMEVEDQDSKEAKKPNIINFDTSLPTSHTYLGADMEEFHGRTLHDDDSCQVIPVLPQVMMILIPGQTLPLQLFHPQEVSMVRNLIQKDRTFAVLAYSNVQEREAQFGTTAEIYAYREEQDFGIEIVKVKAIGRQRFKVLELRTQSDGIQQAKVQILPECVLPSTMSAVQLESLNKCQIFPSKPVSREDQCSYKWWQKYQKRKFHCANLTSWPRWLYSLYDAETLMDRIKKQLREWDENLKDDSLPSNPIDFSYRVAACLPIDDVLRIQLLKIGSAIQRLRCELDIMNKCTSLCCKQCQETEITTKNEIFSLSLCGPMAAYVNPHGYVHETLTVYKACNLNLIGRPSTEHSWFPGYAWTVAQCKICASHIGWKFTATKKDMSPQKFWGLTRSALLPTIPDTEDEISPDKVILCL
T1 sequence (Q16531 whole entry partner): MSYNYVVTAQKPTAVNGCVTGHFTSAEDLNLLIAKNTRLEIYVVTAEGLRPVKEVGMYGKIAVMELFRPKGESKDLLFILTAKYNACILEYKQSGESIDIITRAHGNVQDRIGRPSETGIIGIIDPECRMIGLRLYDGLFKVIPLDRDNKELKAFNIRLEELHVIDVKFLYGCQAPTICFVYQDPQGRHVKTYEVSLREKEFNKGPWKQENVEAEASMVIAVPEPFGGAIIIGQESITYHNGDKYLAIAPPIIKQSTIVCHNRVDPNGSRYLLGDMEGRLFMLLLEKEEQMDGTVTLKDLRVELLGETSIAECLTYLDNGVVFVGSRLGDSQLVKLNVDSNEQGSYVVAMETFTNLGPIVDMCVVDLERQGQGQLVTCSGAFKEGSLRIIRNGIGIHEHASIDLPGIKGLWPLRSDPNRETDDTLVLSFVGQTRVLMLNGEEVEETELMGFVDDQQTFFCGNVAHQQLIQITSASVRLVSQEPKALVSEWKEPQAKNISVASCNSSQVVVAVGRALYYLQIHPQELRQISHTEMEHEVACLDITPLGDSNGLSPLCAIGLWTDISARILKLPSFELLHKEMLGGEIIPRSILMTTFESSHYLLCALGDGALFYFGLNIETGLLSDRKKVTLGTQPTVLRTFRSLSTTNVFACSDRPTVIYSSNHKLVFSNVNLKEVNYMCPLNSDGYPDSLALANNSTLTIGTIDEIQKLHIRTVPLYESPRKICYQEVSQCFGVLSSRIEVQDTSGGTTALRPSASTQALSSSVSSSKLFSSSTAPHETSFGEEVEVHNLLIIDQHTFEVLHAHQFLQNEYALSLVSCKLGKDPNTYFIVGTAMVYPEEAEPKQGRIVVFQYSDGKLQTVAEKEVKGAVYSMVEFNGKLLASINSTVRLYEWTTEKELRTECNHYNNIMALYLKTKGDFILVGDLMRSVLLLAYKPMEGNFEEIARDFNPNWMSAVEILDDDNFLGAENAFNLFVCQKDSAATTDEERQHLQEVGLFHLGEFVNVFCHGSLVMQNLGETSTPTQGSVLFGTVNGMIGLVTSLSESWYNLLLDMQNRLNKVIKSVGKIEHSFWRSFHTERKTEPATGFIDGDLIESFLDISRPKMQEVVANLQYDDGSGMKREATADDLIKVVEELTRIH
T1 sequence (P15170 whole entry): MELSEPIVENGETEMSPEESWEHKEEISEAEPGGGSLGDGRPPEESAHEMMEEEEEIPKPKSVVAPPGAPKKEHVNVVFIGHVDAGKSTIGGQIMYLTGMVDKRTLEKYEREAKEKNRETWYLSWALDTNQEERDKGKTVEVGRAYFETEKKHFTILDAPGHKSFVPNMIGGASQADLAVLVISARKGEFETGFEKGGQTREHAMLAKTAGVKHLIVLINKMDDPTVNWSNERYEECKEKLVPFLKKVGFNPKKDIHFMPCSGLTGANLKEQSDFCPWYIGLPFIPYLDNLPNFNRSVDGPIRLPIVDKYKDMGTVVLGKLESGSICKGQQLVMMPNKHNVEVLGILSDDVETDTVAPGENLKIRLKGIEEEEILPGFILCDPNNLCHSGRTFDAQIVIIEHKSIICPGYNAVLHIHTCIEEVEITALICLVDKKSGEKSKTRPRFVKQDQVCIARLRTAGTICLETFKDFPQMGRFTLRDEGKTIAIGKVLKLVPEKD
Experimental: HEK293_hGSPTl_HiBiT-tagged cells were generated using CRISPR-Cas12a technology. Briefly, ˜400,000 HEK293 cells were transiently co-transfected with precomplexed ribonuclear proteins (RNPs) consisting of 80 pmol of crRNA (IDT), 62 pmol of Cas12a protein (IDT), 3 μg of ssODN donor (IDT; Alt® modifications), 78 pmol of electroporation enhancer (IDT), and 200 ng of pMaxGFP (Lonza). The transfection was performed via nucleofection (Lonza, 4D-Nucleofector X-unit) using solution P3 and program CM-130 in a ([…]) cuvette. Five days post-nucleofection, cells were single-cell-sorted for GFP+(transfected) cells by FACs in 96-well plates and clonally selected. Clones were screened and verified for the desired modification via targeted deep sequencing using gene-specific primers with partial Illumina adapter overhangs as previously described. In brief, clonal cell pellets were harvested, lysed, and used to generate gene-specific amplicons with partial Illumina adapters in PCR #1. Amplicons were indexed in PCR #2 and pooled with other targeted amplicons for other loci to create sequence diversity. Additionally, 10% PhiX sequencing control V3 (Illumina) was added to the pooled amplicon library prior to running the sample on a Miseq Sequencer System (Illumina) to generate paired 2×250 bp reads. Samples were demultiplexed using the index sequences, fastq files were generated, and NGS analysis was performed using CRIS.py. Final clones were authenticated using the PowerPlex fusion system (Promega) and tested negative for mycoplasma by the MycoAlertTMPlus mycoplasma detection kit (Lonza).
Editing construct sequences and screening primers are outlined below (sequence from 5′ to 3′). hGSPT1Cas12acrRNA, CAGE635.GSPT1.g1: […]; CAGE635.g1.anti.ssODN: ttcctcacagtattgtgcagggtcatcaagaaaatgctta[…] CAGCCGCTCACgtcCttctctggaaccagtttcagaacttttccaattgcaatggtcttacctagaaatgaaattttaa (HiBiT tag and silent blocking modifications to prevent Cas12a recutting after integration are in upper case); CAGE635.hGSPT1.DS.F: […]; CAGE635.hGSPT1.DS.R: GTGAA GTAGGCTTCTGCAGTC.
The GSPT1 degradation assay was carried out by harvesting the HEK 293T reporter cell lines and resuspending the cells in media formulated for reduced background fluorescence (FluoroBrite; Thermo Fisher). The respective cell lines were seeded at a density of 8,000 cells/well into white-opaque 384-well optical grade assay tissue culture plates (Greiner 781080-20). The cells were incubated overnight at 37° C. to allow for attachment to the assay plate. Dilutions of the compounds were prepared in DMSO from 10 mM compound stocks. Test compounds were added in a 10-point dilution series (typically 10 μM to 100 pM) using a TECAN D300e Digital Dispenser with an upper limit of 0.5% final DMSO. Plates were centrifuged at 320×g for 2 minutes at room temperature, and subsequently incubated at 37° C.
After 24 hour incubation with the compounds, the plates were allowed to cool to room temperature for 10 minutes. 30 μL of HiBiT lytic buffer+1:50 HiBiT substrate Solution were added to each well. Plates were centrifuged at 320×g for 2 minutes at room temperature and then incubated with shaking at room temperature for 10 minutes covered with foil. Plates were read on a CLARIOstar microplate reader (BMG LabTech), measuring at 450 nm (donor emission) and 610 nm or 630 nm (acceptor emission). The DC50 values were determined by regression to best fit four-parameter logistic curves using GraphPad Prism.

[1] = biological target: T2, human E3 ligase component cereblon (CRBN) (Homo sapiens, UniProt Q96SW2); assay: Cereblon (CRBN) target engagement, NanoBRET TE Intracellular E3 Ligase Assay in transfected HEK-293T cells; details: read-out: CRBN Binding EC50
T2 construct: host or cells: HEK293T
T2 sequence (Q96SW2 whole entry): as the sequence (Q96SW2 whole entry partner) above
T2 sequence (Q16531 whole entry partner): as the sequence (Q16531 whole entry partner) above
Method in brief: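 Tracer displacement was read as the 610/450 nm BRET signal after 2 h at 37° C with an 11-point dilution series, typically 10 μM to 100 pM. Live HEK-293T cells expressed NanoLuc fused N-terminal to human CRBN together with DDB1. IC50 was fitted with a four-parameter logistic model.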

IKZF2 (Helios) [2] = biological target: T3, IKZF2 (Helios) (Homo sapiens, UniProt Q96SW2+Q9UKS7); assay: IKZF2 reporter degradation assay (HEK 293T IKZF2-mNeonGreen reporter cell line); type: cell-based; details: HEK-293T, 24 h, @ 1 μM, HEK 293T IKZF2-mNeonGreen reporter, 24 hours incubation
T3 construct: Leu-Asp junction (codons ctcgac before the linker); mScarlet (behind P2A) (C, cleaved yes); expressed in transfected cells
T3 sequence (Q9UKS7 whole entry): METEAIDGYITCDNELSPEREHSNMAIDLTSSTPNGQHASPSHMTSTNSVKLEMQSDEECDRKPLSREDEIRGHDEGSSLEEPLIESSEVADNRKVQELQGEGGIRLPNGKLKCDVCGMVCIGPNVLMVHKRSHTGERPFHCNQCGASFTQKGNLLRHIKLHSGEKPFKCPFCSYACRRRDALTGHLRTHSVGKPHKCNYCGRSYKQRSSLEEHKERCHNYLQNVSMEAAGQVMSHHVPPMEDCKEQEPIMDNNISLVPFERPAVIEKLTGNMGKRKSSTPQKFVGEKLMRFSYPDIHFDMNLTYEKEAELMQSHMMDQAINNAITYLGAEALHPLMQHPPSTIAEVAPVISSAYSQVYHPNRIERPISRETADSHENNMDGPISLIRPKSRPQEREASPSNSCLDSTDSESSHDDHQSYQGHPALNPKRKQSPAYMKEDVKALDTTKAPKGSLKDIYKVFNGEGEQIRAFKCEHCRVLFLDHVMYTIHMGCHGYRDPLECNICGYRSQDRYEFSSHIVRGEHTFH
T3 sequence (Q96SW2 whole entry): as the sequence (Q96SW2 whole entry partner) above
T3 sequence (Q16531 whole entry partner): as the sequence (Q16531 whole entry partner) above
Method in brief: (§1)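 In reporter HEK 293T clones, the FITC exposure was 1000 ms for the IKZF2 line and 500 ms for the IKZF1 and IKZF3 lines. Imaging followed 24 h of compound treatment, and percent-positive scoring was fitted to a four-parameter logistic curve for DC50.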

IKZF2 (Helios) [3] = biological target: T4, IKZF2 (Helios) (Homo sapiens, UniProt Q9UKS7); assay: as above; type: cell-based; details: HEK 293T IKZF2-mNeonGreen reporter, 24 hours incubation
T4 construct: Leu-Asp junction (codons ctcgac before the linker); mScarlet (behind P2A) (C, cleaved yes); expressed in transfected cells
T4 sequence (Q9UKS7 whole entry): as the sequence (Q9UKS7 whole entry) above
T4 sequence (Q96SW2 whole entry, further chain): as the sequence (Q96SW2 whole entry partner) above
T4 sequence (Q16531 whole entry partner): as the sequence (Q16531 whole entry partner) above
Method in brief: as §1

IKZF3 (Aiolos) = biological target: T5, IKZF3 (Aiolos) (Homo sapiens, UniProt Q9UKT9); assay: IKZF3 reporter degradation assay (HEK 293T IKZF3-mNeonGreen reporter cell line); type: cell-based; details: HEK 293T IKZF3-mNeonGreen reporter, 24 hours incubation
T5 construct: Leu-Asp junction (codons ctcgac before the linker); mScarlet (behind P2A) (C, cleaved yes); expressed in transfected cells
T5 sequence (Q96SW2 whole entry partner): as the sequence (Q96SW2 whole entry partner) above
T5 sequence (Q16531 whole entry partner): as the sequence (Q16531 whole entry partner) above
T5 sequence (Q9UKT9 whole entry): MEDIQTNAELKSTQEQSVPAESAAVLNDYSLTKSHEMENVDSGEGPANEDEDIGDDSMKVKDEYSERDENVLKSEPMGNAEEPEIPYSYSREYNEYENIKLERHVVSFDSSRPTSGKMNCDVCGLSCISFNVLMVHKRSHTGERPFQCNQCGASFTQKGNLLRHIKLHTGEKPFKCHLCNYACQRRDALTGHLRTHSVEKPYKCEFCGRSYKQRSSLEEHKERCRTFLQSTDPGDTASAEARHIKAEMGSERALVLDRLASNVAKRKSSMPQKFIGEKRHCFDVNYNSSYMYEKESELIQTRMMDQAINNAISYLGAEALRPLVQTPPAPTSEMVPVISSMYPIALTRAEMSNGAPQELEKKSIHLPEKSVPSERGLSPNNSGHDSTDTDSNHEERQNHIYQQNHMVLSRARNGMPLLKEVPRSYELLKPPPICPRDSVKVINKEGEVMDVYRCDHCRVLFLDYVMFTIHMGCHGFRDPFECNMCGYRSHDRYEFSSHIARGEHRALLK
Method in brief: as §1

IKZF1 (Ikaros) = biological target: T6, IKZF1 (Ikaros) (Homo sapiens, UniProt Q13422); assay: IKZF1 reporter degradation assay (HEK 293T IKZF1-mNeonGreen reporter cell line); type: cell-based; details: HEK 293T IKZF1-mNeonGreen reporter, 24 hours incubation
T6 construct: mScarlet (behind P2A) (C, cleaved yes); expressed in transfected cells
T6 sequence (Q96SW2 whole entry partner): as the sequence (Q96SW2 whole entry partner) above
T6 sequence (Q16531 whole entry partner): as the sequence (Q16531 whole entry partner) above
T6 sequence (Q13422 whole entry): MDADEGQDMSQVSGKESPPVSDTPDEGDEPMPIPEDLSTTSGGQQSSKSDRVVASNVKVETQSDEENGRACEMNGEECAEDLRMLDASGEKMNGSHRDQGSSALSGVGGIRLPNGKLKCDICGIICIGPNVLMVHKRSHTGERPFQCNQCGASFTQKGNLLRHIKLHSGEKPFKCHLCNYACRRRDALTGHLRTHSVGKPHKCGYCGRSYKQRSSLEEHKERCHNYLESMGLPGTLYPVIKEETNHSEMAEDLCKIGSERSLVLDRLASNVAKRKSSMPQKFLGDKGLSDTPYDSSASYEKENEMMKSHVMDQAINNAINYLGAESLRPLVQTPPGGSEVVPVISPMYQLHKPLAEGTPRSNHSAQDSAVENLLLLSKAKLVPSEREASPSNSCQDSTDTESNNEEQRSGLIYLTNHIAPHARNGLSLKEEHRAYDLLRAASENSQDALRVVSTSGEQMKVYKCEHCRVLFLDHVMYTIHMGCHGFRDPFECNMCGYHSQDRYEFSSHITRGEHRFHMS
Method in brief: as §1

Structure (SMILES)	DC50 (GSPT1) [nM]	EC50 [1] [nM]	inhibition at 1 µM (IKZF2 (Helios) [2]) [%]	DC50 (IKZF2 (Helios) [3]) [nM]	DC50 (IKZF3 (Aiolos)) [nM]	DC50 (IKZF1 (Ikaros)) [nM]
O=C1CCC(N2Cc3cc(OC4CCCCC4N4CC(C(=O)N5CCCCC5)C4)ccc3C2=O)C(=O)N1 (single isomer, unassigned) [Compound 23-A, 3-(1-oxo-5-((2-(3-(piperidine-1-carbonyl)azetidin-1-yl)cyclohexyl)oxy)isoindolin-2-yl)piperidine-2,6-dione]	> 30000					
Cc1cnc(C2CN([C@H]3CCCC[C@H]3Oc3ccc4c(c3)CN(C3CCC(=O)NC3=O)C4=O)C2)nc1 (mixture of isomers) [Compound 184-B, Rac-3-(5-(((cis)-2-(3-(5-methylpyrimidin-2-yl)azetidin-1-yl)cyclohexyl)oxy)-1-oxoisoindolin-2-yl)piperidine-2,6-dione]		17	79.6	21	> 30000	> 30000
O=C1CCC(N2Cc3cc(O[C@H]4CCCC[C@@H]4N4CC(c5ccc6[nH]ncc6c5)C4)ccc3C2=O)C(=O)N1 (stereo partly drawn) [Compound 204-B, 3-(5-(((1S,2S)-2-(3-(1H-indazol-5-yl)azetidin-1-yl)cyclohexyl)oxy)-1-oxoisoindolin-2-yl)piperidine-2,6-dione]		37	75.4	22	> 30000	> 30000
N#Cc1cc(C2CN([C@@H]3CCCC[C@@H]3Oc3ccc4c(c3)CN(C3CCC(=O)NC3=O)C4=O)C2)ccn1 (mixture of isomers) [Compound 179-B, Rac-4-(1-((cis)-2-((2-(2,6-dioxopiperidin-3-yl)-1-oxoisoindolin-5-yl)oxy)cyclohexyl)azetidin-3-yl)picolinonitrile]		39	68.6	46	> 30000	> 30000
Cc1cnc(C2CN([C@H]3CCCC3Oc3ccc4c(c3)CN(C3CCC(=O)NC3=O)C4=O)C2)o1 (mixture of isomers) [Compound 151-B, Rac-3-(5-(((trans)-2-(3-(5-methyloxazol-2-yl)azetidin-1-yl)cyclopentyl)oxy)-1-oxoisoindolin-2-yl)piperidine-2,6-dione]	> 30000	79				
Cc1cnc(C2CN([C@H]3CCCC3Oc3ccc4c(c3)CN(C3CCC(=O)NC3=O)C4=O)C2)o1 (mixture of isomers) [Compound 161-B, Rac-3-(5-(((cis)-2-(3-(5-methyloxazol-2-yl)azetidin-1-yl)cyclopentyl)oxy)-1-oxoisoindolin-2-yl)piperidine-2,6-dione]		120	49.7	138	> 30000	> 30000
Cc1ccnc(C2CN([C@H]3CCCC[C@H]3Oc3ccc4c(c3)CN(C3CCC(=O)NC3=O)C4=O)C2)n1 (mixture of isomers) [Compound 185-B, Rac-3-(5-(((cis)-2-(3-(4-methylpyrimidin-2-yl)azetidin-1-yl)cyclohexyl)oxy)-1-oxoisoindolin-2-yl)piperidine-2,6-dione]		30	80.3	21	> 30000	> 30000
O=C1CCC(N2Cc3cc(OC4CCCCC4N4CC(c5ccc6cccnc6c5)C4)ccc3C2=O)C(=O)N1 (stereo not shown) [Compound 193-B, 3-(1-oxo-5-((2-(3-(quinolin-7-yl)azetidin-1-yl)cyclohexyl)oxy)isoindolin-2-yl)piperidine-2,6-dione]		6	81.9	6	> 30000	> 30000
O=C1CCC(N2Cc3cc(OC4CCC[C@@H]4N4CC(c5ccncc5)C4)ccc3C2=O)C(=O)N1 (mixture of isomers) [Compound 205-B, Rac-3-(1-oxo-5-(((cis)-2-(3-(pyridin-4-yl)azetidin-1-yl)cyclopentyl)oxy)isoindolin-2-yl)piperidine-2,6-dione]		46	40.6	219	> 30000	> 30000
O=C1CCC(N2Cc3cc(O[C@H]4CCCC[C@@H]4N4CC(c5ncc(C(F)(F)F)cn5)C4)ccc3C2=O)C(=O)N1 (mixture of isomers) [Compound 187-B, Rac-3-(1-oxo-5-(((trans)-2-(3-(5-(trifluoromethyl)pyrimidin-2-yl)azetidin-1-yl)cyclohexyl)oxy)isoindolin-2-yl)piperidine-2,6-dione]		6	27.4	85	> 30000	> 30000
